Marks after values point to notes of the source that are not given here.
Tests used:
Format in all cases: in vivo
[1] = system: SD rats fed with high fat and fructose diet; test: Liver, kidney and adipose tissue weight after sacrifice; settings: HFFD-fed SD rats, oral 10 weeks
Description: (§1) The present invention provides a method of treatment of preventing hyperglycemia complications using at least one pharmaceutical made from a red mold product, wherein the red mold product is a red mold rice or a red mold Dioscorea, and the pharmaceutical is an extract obtained from the red mold product. The extract is Monascin, Ankaflavin, or a combination of Monascin and Ankaflavin. […] Moreover, in order to verify the practicability of the method of treatment of preventing hyperglycemia complications proposed by the present invention, a particularly-arranged of animal experiment is completed by inventors. After 1-week pre-feeding, several SD rats are divided into 9 experimental groups for carrying out 10-week animal experiment.
Insulin is used for impelling the absorption and utilization of blood glucose in liver, muscle and adipose tissue. Because white adipose tissue (WAT) is used for storing triglycerides (TG) transformed from blood glucose, a large amount of accumulation of adipocytes would cause the occurrence of inflammatory response so as to induce lipolysis action. Therefore, the inflammatory-induced lipolysis action would produce a large amount of glycerin and free fatty acid (FFA), so as to aggravate the production of Hyperglycemia, fatty liver, and high blood ketone. Based on above reasons, the effects provided by the different test samples on liver, kidney, and adipose tissue weight of the rats are needed to be determined.
For carrying out the determination of liver, kidney, and adipose tissue weight, it needs to sacrifice the rats. After sacrificing the rat, blood to be determined is collected from the intraperitoneal of the rat by using syringes, and then the collected blood are disposed into a 2-mL microcentrifuge tube. After staying for 5 minutes, the microcentrifuge tube carrying with blood is treated with a centrifugation process, and then the serum of the blood is stored in an environment with −20° C. After that, the liver, kidney, and adipose tissue are taken out of the rat.

[2] = system: SD rats fed with high fat and fructose diet; test: Histomorphology of liver slices (fatty liver); settings: FIG. 11, vs HFFD group, oral 10 weeks, 1-fold dose mg/kg bw/day: MF 78.06, RMD 104.17, Monascin 0.31 (MS1X), Ankaflavin 0.16 (AK1X), MS-AK 0.31 + 0.16
Description: as §1

IL-6 = IL-6 expression in adipose tissue; settings: FIG. 8, vs HFFD group; HFFD-fed SD rats, oral 10 weeks; 1-fold dose mg/kg bw/day: MF 78.06, RMD 104.17, Monascin 0.31 (MS1X), Ankaflavin 0.16 (AK1X), MS-AK 0.31 + 0.16
Description: as §1
(§2) Please refer to FIG. 8 and FIG. 9, where a statistical bar graph of IL-6 expression in adipose tissue and a statistical bar graph of IL-1β expression in adipose tissue are provided.

GLUT-4 = GLUT-4 expression in adipose tissue; settings: FIG. 7, vs HFFD group; HFFD-fed SD rats, oral 10 weeks; 1-fold dose mg/kg bw/day: MF 78.06, RMD 104.17, Monascin 0.31 (MS1X), Ankaflavin 0.16 (AK1X), MS-AK 0.31 + 0.16
Description: as §1

IL-1β = IL-1β expression in adipose tissue; settings: FIG. 9, vs HFFD group; HFFD-fed SD rats, oral 10 weeks; 1-fold dose mg/kg bw/day: MF 78.06, RMD 104.17, Monascin 0.31 (MS1X), Ankaflavin 0.16 (AK1X), MS-AK 0.31 + 0.16
Description: as §1, §2

[3] = system: SD rats fed with high fat and fructose diet; test: Oral glucose tolerance test (OGTT), AUC of blood glucose; settings: FIG. 2, vs HFFD group, oral 10 weeks, 1-fold dose mg/kg bw/day: MF 78.06, RMD 104.17, Monascin 0.31 (MS1X), Ankaflavin 0.16 (AK1X), MS-AK 0.31 + 0.16
Description: as §1

HIF-1α = HIF-1α expression in adipose tissue; settings: FIG. 10, vs HFFD group; HFFD-fed SD rats, oral 10 weeks; 1-fold dose mg/kg bw/day: MF 78.06, RMD 104.17, Monascin 0.31 (MS1X), Ankaflavin 0.16 (AK1X), MS-AK 0.31 + 0.16
Description: as §1

GLUT-2 = GLUT-2 expression in adipose tissue; settings: FIG. 6, vs HFFD group; HFFD-fed SD rats, oral 10 weeks; 1-fold dose mg/kg bw/day: MF 78.06, RMD 104.17, Monascin 0.31 (MS1X), Ankaflavin 0.16 (AK1X), MS-AK 0.31 + 0.16
Description: as §1

[4] = system: Reactive Oxygen Species (ROS); test: ROS concentration in liver; settings: FIG. 4, vs HFFD group; HFFD-fed SD rats, oral 10 weeks; 1-fold dose mg/kg bw/day: MF 78.06, RMD 104.17, Monascin 0.31 (MS1X), Ankaflavin 0.16 (AK1X), MS-AK 0.31 + 0.16
Description: as §1

TNF-α = TNF-α expression in adipose tissue; settings: FIG. 5, vs HFFD group; HFFD-fed SD rats, oral 10 weeks; 1-fold dose mg/kg bw/day: MF 78.06, RMD 104.17, Monascin 0.31 (MS1X), Ankaflavin 0.16 (AK1X), MS-AK 0.31 + 0.16
Description: as §1

adiponectin = test: Adiponectin expression in adipose tissue; settings: FIG. 3, vs HFFD group; HFFD-fed SD rats, oral 10 weeks; 1-fold dose mg/kg bw/day: MF 78.06, RMD 104.17, Monascin 0.31 (MS1X), Ankaflavin 0.16 (AK1X), MS-AK 0.31 + 0.16
Description: as §1

[5] = 1-fold dose mg/kg bw/day: MF 78.06, RMD 104.17, Monascin 0.31 (MS1X), Ankaflavin 0.16 (AK1X), MS-AK 0.31 + 0.16
[6] = 5-fold dose mg/kg bw/day: Monascin 1.56 (MS5X), Ankaflavin 0.78 (AK5X)

| Structure (SMILES) | Kidney weight [1, 5] | Occupying percentage of summation of the weights of peri-adrenal and epididymal adipose tissue in body Fat [1, 5] | Kidney weight [1, 6] | Occupying percentage of summation of the weights of peri-adrenal and epididymal adipose tissue in body Fat [1, 6] | formation of fatty liver [2] | percentage of IL-6 expression in adipose tissue (IL-6) | percentage of GLUT-4 expression in adipose tissue (GLUT-4) | percentage of IL-1β expression in adipose tissue (IL-1β) | AUC (area under curve) of blood glucose [3] | percentage of HIF-1α expression in adipose tissue (HIF-1α) | percentage of GLUT-2 expression in adipose tissue (GLUT-2) | ROS level in liver [4] | percentage of TNF-α expression in adipose tissue (TNF-α) | percentage of adiponectin expression in adipose tissue (adiponectin) |
| --- | --- | --- | --- | --- | --- | --- | --- | --- | --- | --- | --- | --- | --- | --- |
| C/C=C/C1=CC2=C(CO1)C(=O)[C@]1(C)OC(=O)[C@H](C(=O)CCCCCCC)[C@H]1C2 [Ankaflavin] | 3.72 ± 0.31^ab | 4.32 ± 0.59^b % | 3.55 ± 0.29^ab | 4.30 ± 0.53^b % |  |  |  |  |  |  |  |  |  |  |
| CN(C)C(=N)N=C(N)N [MF, Metformin] | 3.64 ± 0.26^ab | 4.27 ± 1.43^bc % |  |  | alleviated or solved | largely lowered | largely enhanced | largely lowered | obviously lower | largely lowered | largely enhanced | largely lowered | largely reduced | largely enhanced |
| C/C=C/C1=CC2=C(CO1)C(=O)[C@]1(C)OC(=O)[C@H](C(=O)CCCCC)[C@H]1C2 [Monascin] | 3.61 ± 0.20^ab | 5.12 ± 0.84^bc % | 3.71 ± 0.40^ab | 4.97 ± 0.80^bc % |  |  |  |  |  |  |  |  |  |  |

Reference: US10143678B1, “Method of treatment of preventing hyperglycemia complications” (Sunway Biotech Co., LTD, priority 2015, dated 2018)
